pIC50: −log10 of the molar value.
Legend:
[1] = biological target: T1, α4β1 integrin (Homo sapiens, UniProt P05556+P13612); assay: Jurkat-Endothelial Cell Adhesion Assay (Jurkat EC); assay type: cell-based; conditions: Jurkat cell adhesion to IL-1 stimulated endothelial cell monolayers
T1 construct: a T-cell line, Jurkat, known to express the α4β1 integrin; host or cells: Jurkat T-cell line
Method: The following assay established the activity of the present compounds in inhibiting β1-mediated cell adhesion in a representative in vitro system. This assay measures the adhesive interactions of a T-cell line, Jurkat, known to express the α4β1 integrin, to endothelial monolayers in the presence of test compounds. The test compounds were added in increasing concentrations to T-cells and then the T-cell compound mixture was added to IL-1 stimulated endothelial cell monolayers. The plates were incubated, washed and the percentage of attached cells was quantitated.
Human umbilical vein endothelial cells were purchased from Clonetics (San Diego, CA.) at passage number 2. The cells were grown on 0.5% porcine skin gelatin pre-coated flasks (Sigma, St. Louis MO.) in EGM-UV media (Clonetics, San Diego, CA) supplemented with 10% fetal bovine serum. Cells are refed every 2-3 days reaching confluence by day 4 to 6. […] The endothelial cells are not used following passage 6.
The T-cell line Jurkat was obtained from American Type Tissue Culture Collection (Rockville, MD) and the cells were cultured in RPMI containing 10 % fetal calf serum. The cells were washed twice in Hank's Balanced Salt Solution (HBSS) and resuspended in Dulbecco's Minimal Eagle's Media (DMEM) containing 2.5 mg/ml Human Serum Albumin (HSA). Jurkat cells (1x10^6 cells/ml) were stained with 10 ng/ml BCECF-AM (Molecular Probes, Eugene, OR)) in HBSS without phenol red. The cells were loaded with BCECF for 60 minutes in the dark at 37°C, washed 2 times, and resuspended in DMEM-HSA solution.
Confluent endothelial monolayers, grown in 96-well tissue culture plates, were stimulated for 4 hr. at 37 °C with 0.1 ng/ml (∼50 U/ml) recombinant IL-1 (Amgen, Thousand Oaks, CA). Following this incubation, the monolayers were washed twice with HBSS and 0.1 ml of DMEM-HSA solution was added. Jurkat cells (5 x 10^5 cells) were combined with the appropriate concentration of the test compound and 0.1 ml of the Jurkat cell-compound mixture was added to the endothelial cell monolayers. Generally, 100, 20, 5 and 1.25 µM compound concentrations were tested. […] Following this incubation, the monolayers were washed twice with PBS containing 1 mM calcium chloride and 1 mM magnesium chloride' and the plates were read using a Millipore Cytofluor 2300 (Marlboro, MA.). Fluorescence in each well was measured as Arbitrary Fluorescence Units and percent adhesion in the absence of compound was adjusted to 100% and the % adhesion in the presence of compound was calculated. Monolayers were also fixed in 3% paraformaldehyde and evaluated microscopically to verify the adhesion. This procedure is a modification of a previously published method (Cardarelli et al., J. Biol. Chem. 269:18668-18673 (1994)).

[2] = biological target: T2, α4β1 (Homo sapiens, UniProt P05556+P13612); assay: Jurkat-CS-1 assay; assay type: cell-based; conditions: Jurkat cell adhesion to immobilized CS-1 derived peptide
T2 construct: 100 µl of Jurkat cells (2.5 x 10^6 cells/ml) in DMEM plus BSA; host or cells: Jurkat T-cell line
Method: The CS-1 derived peptide, CLHPGEILDVPST, and the scrambled control peptide, CLHGPIELVSDPT, were synthesized on a Beckman 990 synthesizer using t-Boc methodology. The peptides were immobilized onto microtiter plates using the heterobifunctional crosslinker 3-(2-pyridyldithio)propionic acid N-hydroxysuccinimide ester (SPDP) as reported by Pierschbacher et al., Proc. Natl. Acad. USA, 80:1224-1227 (1983). Microtiter plates were coated with 20 µg/ml HSA for 2 hr. at room temperature, washed once with PBS and derivatized with 10 µg/ml SPDP for 1 hr. After washing, 100 µl of a 100 µg/ml cysteine containing peptide solution which had been recently dissolved was added to the wells and allowed to crosslink to the plates overnight at 4 °C. Unbound peptide was removed from plates by washing with PBS. To block non-reacted sites, the plates are coated with 100 µl of a 2.5 mg/ml BSA solution in PBS for 1 hr. at 37 °C. 100 µl of Jurkat cells (2.5 x 10^6 cells/ml) in DMEM plus BSA (2.5 mg/ml) was mixed with an appropriate concentration of the compound to be tested and the mixture was added to peptide coated dishes and incubated for 1 hr. at 37 °C. Generally 100, 20, 5 and 1.25 µM concentrations of the compound were tested.
Following this incubation the plates were washed once with PBS and the attached cells were fixed with 3% paraformaldehyde in PBS and stained with 0.5% toluidine blue in 3.7% formaldehyde. The cells were stained overnight at room temperature and the optical density at 590 nm of toluidine blue stained cells was determined using a vertical pathway spectrophotometer to quantitate attachment (VMAX Kinetic Microplate Reader, Molecular Devices, Menlo Park, CA). This procedure is a modification of a previously published method (Cardarelli et al, J. Biol. Chem., 269:18668-18673 (1994) and Cardarelli et al, Proc. Natl. Acad. Sci. USA, 83:2647-2651 (1986)).

T1 sequence (P13612 34-1032): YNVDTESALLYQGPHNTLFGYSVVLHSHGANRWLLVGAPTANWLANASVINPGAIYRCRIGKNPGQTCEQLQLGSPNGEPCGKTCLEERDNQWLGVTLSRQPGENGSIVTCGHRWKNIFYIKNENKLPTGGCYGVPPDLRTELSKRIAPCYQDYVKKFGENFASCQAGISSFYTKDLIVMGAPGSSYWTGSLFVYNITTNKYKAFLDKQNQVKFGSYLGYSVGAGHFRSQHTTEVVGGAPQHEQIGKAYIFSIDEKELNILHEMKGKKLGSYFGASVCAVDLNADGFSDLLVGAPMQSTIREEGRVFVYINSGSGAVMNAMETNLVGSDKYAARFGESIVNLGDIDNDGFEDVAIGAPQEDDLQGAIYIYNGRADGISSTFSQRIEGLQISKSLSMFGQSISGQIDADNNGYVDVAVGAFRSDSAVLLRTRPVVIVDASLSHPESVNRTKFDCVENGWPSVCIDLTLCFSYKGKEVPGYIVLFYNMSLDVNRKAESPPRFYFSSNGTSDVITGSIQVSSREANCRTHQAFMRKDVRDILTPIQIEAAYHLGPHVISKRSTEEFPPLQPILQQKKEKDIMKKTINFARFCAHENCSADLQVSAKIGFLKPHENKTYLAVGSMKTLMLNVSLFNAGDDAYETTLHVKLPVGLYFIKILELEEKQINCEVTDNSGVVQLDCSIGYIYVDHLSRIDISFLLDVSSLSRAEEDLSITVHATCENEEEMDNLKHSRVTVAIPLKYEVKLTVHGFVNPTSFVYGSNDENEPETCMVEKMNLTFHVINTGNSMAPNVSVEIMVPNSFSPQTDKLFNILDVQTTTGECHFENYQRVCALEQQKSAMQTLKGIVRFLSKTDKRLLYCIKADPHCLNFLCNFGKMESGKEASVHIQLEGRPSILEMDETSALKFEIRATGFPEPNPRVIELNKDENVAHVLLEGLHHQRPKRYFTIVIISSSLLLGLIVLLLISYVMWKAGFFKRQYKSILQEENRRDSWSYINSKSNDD
T1 sequence (P05556 21-798): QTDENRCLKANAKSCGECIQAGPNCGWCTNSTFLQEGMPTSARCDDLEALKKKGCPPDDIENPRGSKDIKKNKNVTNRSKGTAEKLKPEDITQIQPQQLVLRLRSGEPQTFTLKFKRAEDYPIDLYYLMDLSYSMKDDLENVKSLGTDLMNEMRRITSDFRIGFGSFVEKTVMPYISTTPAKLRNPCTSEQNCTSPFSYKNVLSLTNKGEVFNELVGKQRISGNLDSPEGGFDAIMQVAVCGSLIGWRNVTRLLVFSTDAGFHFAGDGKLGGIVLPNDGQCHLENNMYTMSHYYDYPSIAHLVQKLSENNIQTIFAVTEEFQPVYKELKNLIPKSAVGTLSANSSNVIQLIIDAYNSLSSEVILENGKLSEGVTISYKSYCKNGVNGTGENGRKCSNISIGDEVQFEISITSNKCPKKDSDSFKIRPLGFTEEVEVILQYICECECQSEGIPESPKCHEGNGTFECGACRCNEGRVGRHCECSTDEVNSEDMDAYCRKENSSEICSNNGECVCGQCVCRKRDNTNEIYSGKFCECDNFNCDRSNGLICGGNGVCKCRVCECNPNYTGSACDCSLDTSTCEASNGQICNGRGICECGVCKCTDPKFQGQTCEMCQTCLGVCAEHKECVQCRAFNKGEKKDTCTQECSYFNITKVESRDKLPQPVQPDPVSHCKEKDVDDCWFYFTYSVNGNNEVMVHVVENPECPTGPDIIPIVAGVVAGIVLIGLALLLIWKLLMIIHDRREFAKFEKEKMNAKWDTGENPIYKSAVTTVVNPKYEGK
T2 sequence (P13612 34-1032): as the sequence (P13612 34-1032) above
T2 sequence (P05556 21-798): as the sequence (P05556 21-798) above

O=C(O)c1ccc(C(=O)NC2CCCCC2C(=O)NC(Cc2ccc(NC(=O)c3c(Cl)cccc3Cl)cc2)C(=O)O)nc1 (stereo not shown) [Example 81]
pIC50 [1]: 5.30 to 6.10
pIC50 [2]: 6.30 to 7.10

O=C(NC1CCCCC1C(=O)NC(Cc1ccc(NC(=O)c2c(Cl)cccc2Cl)cc1)C(=O)O)c1cc(O)c2ccccc2n1 (stereo not shown) [Example 82]
pIC50 [1]: ≥ 6.10
pIC50 [2]: 6.30 to 7.10

O=C(NC1CCCCC1C(=O)NC(Cc1ccc(NC(=O)c2c(Cl)cccc2Cl)cc1)C(=O)O)c1cc(C(=O)O)[nH]n1 (stereo not shown) [Example 83]
pIC50 [1]: ≥ 6.10
pIC50 [2]: ≥ 7.10

O=C(Nc1ccc(CC(NC(=O)C2CCCCC2NC(=O)C2NC(C(=O)O)CS2)C(=O)O)cc1)c1c(Cl)cccc1Cl (stereo not shown) [Example 84]
pIC50 [1]: ≥ 6.10
pIC50 [2]: 6.30 to 7.10

O=C(NC1CCCCC1C(=O)NC(Cc1ccc(NC(=O)c2c(Cl)cccc2Cl)cc1)C(=O)O)c1ccc([N+](=O)[O-])o1 (stereo not shown) [Example 85]
pIC50 [1]: ≥ 6.10
pIC50 [2]: ≥ 7.10

O=C(Nc1ccc(CC(NC(=O)C2CCCCC2NC(=O)C2CCCO2)C(=O)O)cc1)c1c(Cl)cccc1Cl (stereo not shown) [Example 86]
pIC50 [1]: ≥ 6.10
pIC50 [2]: ≥ 7.10

O=C(Nc1ccc(CC(NC(=O)C2CCCCC2NC(=O)C2CCOC2)C(=O)O)cc1)c1c(Cl)cccc1Cl (stereo not shown) [Example 87]
pIC50 [1]: ≥ 6.10
pIC50 [2]: 6.30 to 7.10

CC(=O)[C@H]1C[C@@H](CC(=O)N[C@@H](Cc2ccc(NC(=O)c3c(Cl)cccc3Cl)cc2)C(=O)O)C1(C)C [Example 88, (1S-cis)-N-[(3-Acetyl-2,2-dimethylcyclobutyl)acetyl]-4-[(2,6-dichlorobenzoyl)amino]-L-phenylalanine]
pIC50 [1]: 5.00 to 5.30
pIC50 [2]: 6.00 to 6.30

CC(O)[C@H]1C[C@@H](CC(=O)N[C@@H](Cc2ccc(NC(=O)c3c(Cl)cccc3Cl)cc2)C(=O)O)C1(C)C (stereo partly drawn) [Example 89, [1S-(1α,3α)]-4-[(2,6-Dichlorobenzoyl)amino]-N-[[3-(1-hydroxyethyl)-2,2-dimethylcyclobutyl]acetyl]-L-phenylalanine]
pIC50 [1]: 5.00 to 5.30
pIC50 [2]: 6.00 to 6.30

CC(=O)[C@@H]1C[C@H](CC(=O)N[C@@H](Cc2ccc(NC(=O)c3c(Cl)cccc3Cl)cc2)C(=O)O)C1(C)C [Example 91, (1R-cis)-N-[(3-Acetyl-2,2-dimethylcyclobutyl)acetyl]-4-[(2,6-dichlorobenzoyl)amino]-L-phenylalanine]
pIC50 [1]: 5.30 to 6.10
pIC50 [2]: 6.00 to 6.30

CC1(C)[C@@H](CC(=O)N[C@@H](Cc2ccc(NC(=O)c3c(Cl)cccc3Cl)cc2)C(=O)O)C[C@H]1C(=O)O [Example 93, (1R-cis)-N-[(3-Carboxy-2,2-dimethylcyclobutyl)acetyl]-4-[(2,6-dichlorobenzoyl)amino]-L-phenylalanine]
pIC50 [1]: 5.30 to 6.10
pIC50 [2]: 6.30 to 7.10

CC1(C)[C@@H](C(=O)O)C[C@@H]1C(=O)N[C@@H](Cc1ccc(OCc2c(Cl)cccc2Cl)cc1)C(=O)O [Example 94, (1S-trans)-N-[(3-Carboxy-2,2-dimethylcyclobutyl)carbonyl]-4-[(2,6-dichlorophenyl)methoxy]-L-phenylalanine]
pIC50 [1]: ≥ 6.10
pIC50 [2]: 6.30 to 7.10

CC(=O)[C@H]1C[C@H](C(=O)N[C@@H](Cc2ccc(NC(=O)c3c(Cl)cccc3Cl)cc2)C(=O)O)C1(C)C [Example 96, (1S-trans)-N-[(3-Acetyl-2,2-dimethylcyclobutyl)carbonyl]-4-[(2,6-dichlorobenzoyl)amino]-L-phenylalanine]
pIC50 [1]: ≥ 6.10
pIC50 [2]: ≥ 7.10

CC(=O)[C@@H]1C[C@H](C(=O)N[C@@H](Cc2ccc(NC(=O)c3c(Cl)cccc3Cl)cc2)C(=O)O)C1(C)C [Example 97, (1S-cis)-N-[(3-Acetyl-2,2-dimethylcyclobutyl)carbonyl]-4-[(2,6-dichlorobenzoyl)amino)-L-phenylalanine]
pIC50 [1]: ≥ 6.10
pIC50 [2]: ≥ 7.10

CC1(C)[C@@H](C(=O)O)C[C@@H]1C(=O)N[C@@H](Cc1ccc(NC(=O)c2c(Cl)cccc2Cl)cc1)C(=O)O [Example 98, (1S-trans)-N-[(3-Carboxy-2,2-dimethylcyclobutyl)carbonyl]-4-[(2,6-dichlorobenzoyl)amino]-L-phenylalanine]
pIC50 [1]: ≥ 6.10
pIC50 [2]: 6.30 to 7.10

CC1(C)[C@@H](C(=O)N[C@@H](Cc2ccc(NC(=O)c3c(Cl)cccc3Cl)cc2)C(=O)O)C[C@H]1C(=O)O [Example 99, (1S-cis)-N-[(3-Carboxy-2,2-dimethylcyclobutyl)carbonyl]-4-[(2,6-dichlorobenzoyl)amino]-L-phenylalanine]
pIC50 [1]: 5.30 to 6.10
pIC50 [2]: 6.30 to 7.10

CC(=O)[C@@H]1C[C@@H](C(=O)N[C@@H](Cc2ccc(NC(=O)c3c(Cl)cccc3Cl)cc2)C(=O)O)C1(C)C [Example 100, (1R-trans)-N-[(3-Acetyl-2,2-dimethylcyclobutyl]carbonyl]-4-[(2,6-dichlorobenzoyl)amino]-L-phenylalanine]
pIC50 [1]: 5.30 to 6.10
pIC50 [2]: 6.30 to 7.10

CC(=O)[C@H]1C[C@@H](C(=O)N[C@@H](Cc2ccc(NC(=O)c3c(Cl)cccc3Cl)cc2)C(=O)O)C1(C)C [Example 101, (1R-cis)-N-[(3-Acetyl-2,2-dimethyleyclobutyl)carbonyl]-4-[(2,6-dichlorobenzoyl)-amino]-L-phenylalanine]
pIC50 [1]: 5.30 to 6.10
pIC50 [2]: 6.30 to 7.10

CC1(C)[C@H](C(=O)O)C[C@H]1C(=O)N[C@@H](Cc1ccc(NC(=O)c2c(Cl)cccc2Cl)cc1)C(=O)O [Example 102, (1R-trans)-N-[(3-Carboxy-2,2-dimethylcyclobutyl)carbonyl]-4-[(2,6-dichlorobenzoyl)amino]-L-phenylalanine]
pIC50 [1]: ≥ 6.10
pIC50 [2]: 6.30 to 7.10

CC1(C)[C@@H](C(=O)O)C[C@H]1C(=O)N[C@@H](Cc1ccc(NC(=O)c2c(Cl)cccc2Cl)cc1)C(=O)O [Example 103, (1R-cis)-N-[(3-Carboxy-2,2-dimethylcyclobutyl)carbonyl]-4-[(2,6-dichlorobenzoyl)amino]-L-phenylalanine]
pIC50 [1]: ≥ 6.10
pIC50 [2]: 6.30 to 7.10

CC(=O)[C@H]1C[C@H](C(=O)N[C@@H](Cc2ccc(NC(=O)c3cccnc3Cl)cc2)C(=O)O)C1(C)C [Example 104, (1S-trans)-N-[(3-Acetyl-2,2-dimethylcyclobutyl)carbonyl]-4-[[(2-chloro-3-pyridinyl)carbonyl]amino]-L-phenylalanine]
pIC50 [1]: 5.30 to 6.10
pIC50 [2]: 6.00 to 6.30

CC(=O)[C@@H]1C[C@H](C(=O)N[C@@H](Cc2ccc(NC(=O)c3cccnc3Cl)cc2)C(=O)O)C1(C)C [Example 105, (1S-cis)-N-[(3-Acetyl-2,2-dimethylcyclobutyl)carbonyl]-4-[[(2-chloro-3-pyridinyl)carbonyl]amino]-L-phenylalanine]
pIC50 [1]: 5.30 to 6.10
pIC50 [2]: 6.30 to 7.10

CC(=O)[C@H]1C[C@H](C(=O)N[C@@H](Cc2ccc(NC(=O)c3ccc(Cl)nc3Cl)cc2)C(=O)O)C1(C)C [Example 106, (1S-trans)-N-[(3-Acetyl-2,2-dimethylcyclobutyl)carbonyl]-4-[[(2,6-dichloro-3-pyridinyl)carbonyl]amino]-L-phenylalanine]
pIC50 [1]: 5.30 to 6.10
pIC50 [2]: 6.30 to 7.10
